From PMC3257379 (Amino Acids, 2011)
Positions of bridges follow the written chain, without caps; N, C: chain ends. No end group written: not given here.

How the values were obtained:
[1] = system: tumor-draining brachial LNs of 4T1 tumor-bearing BALB/C mice; experiment: Ex vivo optical; assay type: in vivo, mouse; conditions: day 21 after tumor inoculation; 0.8 nmol, 24 h post injection; no blocking; n = 3/group
MDA-MB-435 xenografts = conditions: systemic LyP-1 peptide treatment of xenografted tumor mice; ref Laakkonen et al. 2004; cited from earlier work

Substance	Average signal of tumor-draining LNs [1]	Effect on tumor growth (MDA-MB-435 xenografts)
Cy5.5	25.6 ± 0.25 ×10^3 photon/cm^2/s	–
CGNKRTRGC (disulfide 1-9 (inferred)) [LyP-1]	–	inhibited tumor growth
